Experimental data published in US20030208035A1, “Antifungal and/or antibacterial peptides, preparation methods, compositions containing same and methods of treating mammals and/or plants” (priority 2000, published 2003).
Bridges are numbered along the chain shown (N, C = ends). Where no end group is shown, it is not given here.

Key:
A. terreus = assay type: cell-based
Description: (§1) The antifungal activity was detected by a growth inhibition test in a liquid medium.
(§2) The filamentous fungi (A. fumigatus, A. flavus and A. terreus, donated by Dr. H. Koenig, Hôpital Civil, Strasbourg; and S. prolificans and F. solani donated by Drs. J. Meis and J. Mouton, University hospital, Microbioolgy Department, Nijmegen, Netherlands) were seeded on Malt-Agar slant gelose (Biomerieux) and incubated 7 days at 37° C.
(§3) The spores were then collected with 10 ml YPG medium containing 0.05% Tween 20 and filtered through a gauze. The spores were centrifuged 10 min at 1700 rpm, the residue was collected in YPG (1 g Yeast extract, 1 g Peptone, 3 g Glucose per 1 l).
(§4) The suspension was counted with a Coverslide and adjusted to 10^4 spores/ml.
(§5) 100 μl of peptide dilutions (concentration of 50 with 0.097 μg/ml peptide) were deposited in microtitration plates. 100 μl with 10^4 spores/ml of filamentous fungi, i.e. 1000 spores, were then added.
(§6) The test plates were incubated 48 h at 37° C.
(§7) Determination of minimum inhibiting concentrations (MIC) was made by observing well cover rate. The MIC score was set at 50% well covering.

A. flavus = assay type: cell-based
Description: as §1, §2, §3, §4, §5, §6, §7

Neurospora crassa = assay type: cell-based; conditions: 48 h
Description: (§8) 100 μl of peptide dilutions (concentration 50 with 0.097 mg/ml peptide) were deposited in microtitration plates.
(§9) After adding 100 μl of frozen spores with 10^4 spores/ml of A. brassicola and N. crassa (donated by Dr. Bullet, IBMC, Strasbourg) the test plates were incubated 48 h at 30° C.
(§10) Determination of minimal inhibiting concentrations (MIC) was made by observing well cover rate. The MIC was set at 50% well covering.

Alternaria brassicola = assay type: cell-based; conditions: 48 h
Description: as §8, §9, §10

Candida albicans = assay: anti-Candida albicans growth inhibition test in liquid medium (96-well microplates); assay type: cell-based; conditions: fold relative to Ard1
Description: The anti-Candida albicans and anti-Aspergillus fumigatus activities of the different analogues were assessed using a growth inhibition test in liquid medium made in 96-well microplates. The activity of the purified peptides was tested for different dilutions of each peptide and was compared with those of heliomycin and Ard1 quantified under the same conditions.
The activity test was made directly on yeasts derived from a stock frozen at −80° C., in Sabouraud medium containing 15% glycerol. The density of the yeasts in the stock was adjusted to an optical density of 0.4 OD at 600 nm. After slow thawing at room temperature, the yeast suspension was reduced by dilution to an optic density of 1 mOD at 600 nm in Sabouraud medium, and 90 μl of this dilution were deposited in the wells of microtitration plates in the presence of 10 μl of sample to be tested. Control samples were systematically made in which 10 μl of sample were replaced by 10 μl of sterile water. Media sterility was controlled by incubating 10 μl sterile water in the presence of 90 μl of medium. The samples were incubated at 30° C. for 40 h under slight stirring and the antifungal activity was quantified by measuring optic density at 600 nm.

[1] = tested on: Candida albicans (IHEM 8060 strain); assay: Candida albicans infected model, lethal in mice (disseminated candidiasis); assay type: in vivo; conditions: for mice alive on day 7 (out of 10): placebo 5 alive; for time of onset of the 1st death: placebo day 2.5; for morbidity score up to post-infection day 5 / median mortality, post-infection day / delay of onset of the 1st death / effect on mouse survival relative to placebo treatment: 5 mg/kg; for morbidity score up to post-infection day 5: placebo 1/50; for median mortality, post-infection day: placebo day 4; for delay of onset of the 1st death: placebo first deaths 2.5 days; for effect on mouse survival relative to placebo treatment: 3.10^6 CFU, three i.v. injections, 10 mice of 15 g
Description: Heliomycin and its analogues were tested for in vivo antifungal activity in a model infected with Candida albicans, lethal in mice. The pathogenic agent Candida albicans (IHEM 8060 strain) was inoculated by intravenous route (i.v.) at a dose of 2.5×10^6 CFU/mouse. the peptides were administered by i.v. route in 4 injections 6 h, 24 h, 48 h and 72 h after infection. Assessment criteria for activity were evaluation of survival and morbidity at 7 days. The morbidity scores, which take into account general state of health (condition of fur, mobility, hydration) were determined for each mouse with values ranging from 0 to 5 and defined below: 0=dead, 1=moribund, 2=very ill, 3=ill, 4=slightly ill, 5=healthy. The sum of the individual scores was calculated for each group, a score of 50 for a group of 10 mice meaning that all the mice were healthy.
Following a standard protocol, groups of 10 Swiss OF1 male mice weighing 12 g were infected via i.v. route with a dose of 2.5×10^6 CFU/mouse. Heliomycin and Ard1 were administered by i.v. route in 4 injections, 6 h, 24 h, 48 h and 72 h after infection. For each peptide, 2 doses were tested: 10 mg/kg and 30 mg/kg. A placebo group was injected with peptide solvent, 0.9% sodium chloride.
In this experiment, inoculation of the mice with 2.5.10^6 CFU/mouse was 50% lethal at day 5 in the group which received placebo treatment. The first deaths occurred on post-infection day 2.5 and median mortality occurred on post-infection day 5. On day 7, 5 mice were alive and the morbidity score 15/50.
In this experiment, inoculation of Swiss OF1 mice weighing 15 g with 3.10^6 CFU of Candida albicans induces 50% mortality on day 4 after infection in the group treated with the placebo. The first deaths occur 2.5 days after infection, and 100% of the mice were dead on day 5.5.
In this experiment, inoculation of the mice with 2.5.10^6 CFU/mouse was 50% lethal at day 5 and 100% at day 8 for mice in the placebo group. The first death occurred 3 days after infection. The morbidity score fell rapidly below 30/50 (25/50 at day 2.5).
The pEM35 peptide was administered at doses of 10 and 30 mg/kg/injection with 3 daily doses for 4 days (1 h, 5 h and 10 h post-infection on day 0; at 8 h, 14 h and 20 h on days 1, 2 and 3), i.e., daily doses totalling 30 and 90 mg/kg.

Row | Sequence | MIC (A. terreus) | MIC (A. flavus) | MIC (Neurospora crassa) | MIC (Alternaria brassicola) | Activity C.a. (relative activity in relation to Ard1) (Candida albicans) | survival rate on post-infection day 8 ([1]; FIG. 8, 30 mg/kg/day (10 mg/kg/injection, 3 daily, 4 days), placebo 100% lethal day 8) | survival rate on post-infection day 8 ([1]; FIG. 8, 90 mg/kg/day (30 mg/kg/injection, 3 daily, 4 days)) | morbidity score on day 8 ([1]; FIG. 8, 30 and 90 mg/kg/day) | morbidity score until day 7 ([1]; FIG. 8, 30 and 90 mg/kg/day) | activity compared with Ard1 ([1]; FIGS. 4-5, 10 mg/kg) | mice alive on day 7 (out of 10) ([1]; FIGS. 4-5, 10 mg/kg) | time of onset of the 1st death ([1]; FIGS. 4-5, 10 mg/kg) | morbidity score up to post-infection day 5 ([1]; FIGS. 6-7) | median mortality, post-infection day ([1]; FIGS. 6-7) | delay of onset of the 1st death ([1]; FIGS. 6-7) | morbidity score maintained for 5 days ([1]; FIGS. 4-5, 10 mg/kg) | effect on mouse survival relative to placebo treatment ([1]; FIGS. 6-7) | effectiveness in the candidiasis infected model ([1]; FIGS. 6-7, dose 5 mg/kg)
1 | DKLIGSCVWGAVNYTSNCNAECKRRGYKGGHCGSFLNVNCWCET (disulfide 7-32, 18-40, 22-42 (inferred)) [pEM35] | 6.25 µg/mL | 3.125 µg/mL | <0.048 µg/mL | >25 µg/mL | 4 | 80% | 90% | 30/50 | above 40/50 | more active than Ard1 | 9 mice | 7 days | 28/50 | 6 days | 1.5 days | – | – | –
2 | DKLIGSCVWGAVNYTSNCNAECKRRGYKGGHCGSFANVNCWCQT (disulfide 7-32, 18-40, 22-42 (inferred)) [pEM31] | – | >25 µg/mL | <0.048 µg/mL | >25 µg/mL | 2 | – | – | – | – | more active than Ard1 | 8 mice | 5.5 days | – | – | – | higher than 40/50 | does not significantly increase mouse survival | not effective
3 | DKLIGSCVWGAVNYTSNCNAECKRRGYKGGHCGSFLNVNCWCQT (disulfide 7-32, 18-40, 22-42 (inferred)) [pEM46] | 6.25 µg/mL | – | 0.195 µg/mL | 25 µg/mL | 4-8 | – | – | – | – | – | – | – | – | – | – | – | does not significantly increase mouse survival | –
4 | DKLIGSCVWGAVNYTSNCRAECKRRGYKGGHCGSFANVNCWCET (disulfide 7-32, 18-40, 22-42 (inferred)) [pEM51] | 3.125 µg/mL | 6.25 µg/mL | 0.195 µg/mL | >25 µg/mL | 2-4 | – | – | – | – | – | – | – | 11/50 | 5 days | 1.5 days | – | – | –
